Reference: patent US20230234942A1, “COMPOUNDS FOR TREATING HUNTINGTON'S DISEASE” (PTC Therapeutics, Inc., priority 2020, published 2023)

Test system: Endogenous Huntingtin Protein
Test: Endogenous Huntingtin Protein Assay (ELISA-based MSD electrochemiluminescence)
Type: cell-based
Details: Table 2; MSD plates coated with MW1 (expanded polyglutamine) or MAB2166 capture antibody; "inactive" = result above the detection limit of the assay
Method in brief: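 MSD electrochemiluminescence sandwich ELISA: capture with MW1 (expanded polyQ) or MAB2166 at 1 µg/mL, samples incubated overnight at 4 °C. Detection by rabbit mAb #56565 then SULFO-TAG anti-rabbit antibody, each 0.25 µg/mL for 1 h at room temperature, read in buffer T on SI 6000 imager.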

In the case of `C[C@@H]1CN(c2ncc(-c3ccc(-n4nccn4)cc3O)nn2)C[C@H](C)N1C` [Cpd 52, 5-(2H-1,2,3-triazol-2-yl)-2-{3-[(3R,5S)-3,4,5-trimethylpiperazin-1-yl]-1,2,4-triazin-6-yl}phenol], the IC50 is reported as 336 nM.
Work on `Cc1ncn2cc(-c3ccc(-c4cnc(N5CCN[C@@H](C6CC6)C5)nn4)c(O)c3)ccc12` [Cpd 194, 2-{3-[(3S)-3-cyclopropylpiperazin-1-yl]-1,2,4-triazin-6-yl}-5-(1-methylimidazo[1,5-a]pyridin-6-yl)phenol] yielded an IC50 of 19.3 nM.
`CC[C@H]1CN(c2ncc(-c3ccc(-c4cn[nH]c4F)cc3O)nn2)C[C@@H](C)N1` [Cpd 223, 2-{3-[(3S,5R)-3-ethyl-5-methylpiperazin-1-yl]-1,2,4-triazin-6-yl]-5-(5-fluoro-1H-pyrazol-4-yl)phenol] was tested, and the IC50 was 7 nM.
`Cc1ccc2c(ccn2-c2ccc(-c3cnc(N4CCN[C@@H](C(C)C)C4)nn3)c(O)c2)n1` [Cpd 159, 5-(5-methyl-1H-pyrrolo[3,2-b]pyridin-1-yl)-2-{3-[(3S)-3-(propan-2-yl)piperazin-1-yl]-1,2,4-triazin-6-yl}phenol] was tested, and the IC50 was 62.2 nM.
`CCc1cc(-c2ccc(-c3cnc(N4CCN[C@@H](C(C)C)C4)nn3)c(O)c2)ncn1` [Cpd 150, 5-(6-ethylpyrimidin-4-yl)-2-{3-[(3S)-3-(propan-2-yl)piperazin-1-yl]-1,2,4-triazin-6-yl}phenol] gave an IC50 of 139 nM.
`CC[C@@H]1CN(c2ncc(-c3ccc(-c4cc(OC)ncn4)cc3O)nn2)C[C@H](C)N1` [Cpd 228, 2-{3-[(3R,5S)-3-ethyl-5-methylpiperazin-1-yl]-1,2,4-triazin-6-yl}-5-(6-methoxypyrimidin-4-yl)phenol] gave an IC50 of 73.1 nM.
In the case of `C[C@@H]1CN(c2ncc(-c3ccc(-c4ccc5nn(C)nc5n4)cc3O)nn2)C[C@H](C)N1` [Cpd 201, 2-{3-[rac-(3R,5S)-3,5-dimethylpiperazin-1-yl]-1,2,4-triazin-6-yl}-5-(2-methyl-2H-[1,2,3]triazolo[4,5-b]pyridin-5-yl)phenol], the IC50 is reported as 11.1 nM.
`CC(C)(C)[C@H]1CN(c2ncc(-c3ccc(-c4c[nH]nc4F)cc3O)nn2)CCN1` [Cpd 125, 2-{3-[(3S)-3-tert-butylpiperazin-1-yl]-1,2,4-triazin-6-yl}-5-(3-fluoro-1H-pyrazol-4-yl)phenol] showed an IC50 of 7.3 nM.
`[2H]C([2H])([2H])n1cc(-c2ccc(-c3cnc(N4CCNC(CC)C4)nn3)c(O)c2)cn1` (centres unmarked) [Cpd 39, 2-[3-(3-ethylpiperazin-1-yl)-1,2,4-triazin-6-yl]-5-[1-(^2H3)methyl-1H-pyrazol-4-yl]phenol] showed an IC50 of 63.7 nM.
Work on `Cn1cc2cc(-c3ccc(-c4cnc(N5CCN6CCC[C@H]6C5)nn4)c(O)c3)cc(F)c2n1` [Cpd 99, 5-(7-fluoro-2-methyl-2H-indazol-5-yl)-2-{3-[(8aS)-hexahydropyrrolo[1,2-a]pyrazin-2(1H)-yl]-1,2,4-triazin-6-yl]phenol] yielded an IC50 of 10.5 nM.
Compound `[2H]C([2H])([2H])n1cc(-c2ccc(-c3cnc(N4CCNC(C(C)(C)O)C4)nn3)c(O)c2)cn1` (centres unmarked) [Cpd 19, 2-{3-[3-(2-hydroxypropan-2-yl)piperazin-1-yl]-1,2,4-triazin-6-yl}-5-[1-(^2H3)methyl-1H-pyrazol-4-yl]phenol] has an IC50 of 17.1 nM.
In the case of `C[C@@H]1CN(c2ncc(-c3ccc(-c4cn[nH]c4)cc3O)nn2)C[C@H](C2CC2)N1` [Cpd 225, 2-{3-[(3S,5R)-3-cyclopropyl-5-methylpiperazin-1-yl]-1,2,4-triazin-6-yl}-5-(1H-pyrazol-4-yl)phenol], the IC50 is reported as 13.4 nM.
Compound `Cc1nc2n(n1)CCN(c1ccc(-c3cnc(N4CCN[C@@H](C(C)C)C4)nn3)c(O)c1)C2` [Cpd 274, 5-(2-methyl-5,6-dihydro[1,2,4]triazolo[1,5-a]pyrazin-7(8H)-yl)-2-{3-[(3S)-3-(propan-2-yl)piperazin-1-yl]-1,2,4-triazin-6-yl}phenol] has an IC50 of 291 nM.
Compound `Cc1cn2cc(-c3cnc(-c4cnc(N5CCN(C)CC5)nn4)c(O)c3)cc(F)c2n1` [Cpd 122, 5-(8-fluoro-2-methylimidazo[1,2-a]pyridin-6-yl)-2-[3-(4-methylpiperazin-1-yl)-1,2,4-triazin-6-yl]pyridin-3-ol] has an IC50 of 41.2 nM.
With `Cc1ccc2c(cnn2-c2ccc(-c3cnc(N4CCN[C@@H](C(C)C)C4)nn3)c(O)c2)n1` [Cpd 155, 5-(5-methyl-1H-pyrazolo[4,3-b]pyridin-1-yl)-2-{3-[(3S)-3-(propan-2-yl)piperazin-1-yl]-1,2,4-triazin-6-yl}phenol] the IC50 was 19.5 nM.
`CC(C)[C@H]1CN(c2ncc(-c3ccc(-c4nccs4)cc3O)nn2)CCN1` [Cpd 185, 2-{3-[(3S)-3-(propan-2-yl)piperazin-1-yl]-1,2,4-triazin-6-yl}-5-(1,3-thiazol-2-yl)phenol] showed an IC50 of 158 nM.
`[2H]C([2H])([2H])n1cc(-c2ccc(-c3cnc(N4CCNC(C(C)C)C4)nn3)c(O)c2)cn1` (centres unmarked) [Cpd 41, 5-[1-(^2H3)methyl-1H-pyrazol-4-yl]-2-{3-[3-(propan-2-yl)piperazin-1-yl]-1,2,4-triazin-6-yl}phenol] was tested, and the IC50 was 110 nM.
Work on `C[C@@H]1CN(c2ncc(-c3ccc(-c4cn[nH]c4)cc3O)nn2)CCN1` [Cpd 166, 2-{3-[(3R)-3-methylpiperazin-1-yl]-1,2,4-triazin-6-yl}-5-(1H-pyrazol-4-yl)phenol] yielded an IC50 of 192 nM.
Work on `Cc1cn2cc(-c3ccc(-c4cnc(N5C[C@@H](C)N[C@@H](C)C5)nn4)c(O)c3)ncc2n1` [Cpd 86, 2-{3-[(3R,5S)-3,5-dimethylpiperazin-1-yl]-1,2,4-triazin-6-yl}-5-(2-methylimidazo[1,2-a]pyrazin-6-yl)phenol] yielded an IC50 of 6 nM.
With `CN1CCN(c2ncc(-c3ccc(-c4cnc5nn(C)cc5c4)cc3O)nn2)CC1` [Cpd 110, 2-[3-(4-methylpiperazin-1-yl)-1,2,4-triazin-6-yl]-5-(2-methyl-2H-pyrazolo[3,4-b]pyridin-5-yl)phenol] the IC50 was 24.9 nM.
With `CC[C@H]1CN(c2ncc(-c3ccc(-c4cn[nH]c4)cc3O)nn2)CCN1` [Cpd 23, 2-{3-[(3S)-3-ethylpiperazin-1-yl]-1,2,4-triazin-6-yl}-5-(1H-pyrazol-4-yl)phenol] the IC50 was 22.7 nM.
Work on `COc1cc(-c2ccc(-c3cnc(N4C[C@@H](C)N[C@@H](C5CC5)C4)nn3)c(O)c2)ncn1` [Cpd 235, 2-{3-[(3S,5R)-3-cyclopropyl-5-methylpiperazin-1-yl]-1,2,4-triazin-6-yl}-5-(6-methoxypyrimidin-4-yl)phenol] yielded an IC50 of 8.1 nM.
`CN1CCn2ncc(-c3ccc(-c4cnc(N5CCN[C@@H](C6CC6)C5)nn4)c(O)c3)c21` [Cpd 275, 2-{3-[(3S)-3-cyclopropylpiperazin-1-yl]-1,2,4-triazin-6-yl}-5-(1-methyl-2,3-dihydro-IH-imidazo[1,2-b]pyrazol-7-yl)phenol] gave an IC50 of 755 nM.
`CC(C)[C@H]1CN(c2ncc(-c3ccc(-c4ncc(F)s4)cc3O)nn2)CCN1` [Cpd 196, 5-(5-fluoro-1,3-thiazol-2-yl)-2-{3-[(3S)-3-(propan-2-yl)piperazin-1-yl]-1,2,4-triazin-6-yl}phenol] gave an IC50 of 492 nM.
`COc1cc(-c2ccc(-c3cnc(N4CCN[C@@H](C5CC5)C4)nn3)c(O)c2)ccn1` [Cpd 251, 2-{3-[(3S)-3-cyclopropylpiperazin-1-yl]-1,2,4-triazin-6-yl]-5-(2-methoxypyridin-4-yl)phenol] gave an IC50 of 18.6 nM.
`CC(C)[C@H]1CN(c2ncc(-c3ccc(-c4cn(C)nn4)cc3O)nn2)CCN1` [Cpd 260, 5-(1-methyl-1H-1,2,3-triazol-4-yl)-2-{3-[(3S)-3-(propan-2-yl)piperazin-1-yl]-1,2,4-triazin-6-yl}phenol] showed an IC50 of 417 nM.
